Assays:
trypsin = target: T1, trypsin (Bos taurus, UniProt P00760); test: Protease treatment: digestion with trypsin, followed by HPLC; assay type: biochemical; conditions: TPCK trypsin, enzyme/substrate ratio 1:50, 0.2 M ammonium hydrogen carbonate, 37°C; product Z-Leu-Arg-OH
T1 sequence (P00760 24-246): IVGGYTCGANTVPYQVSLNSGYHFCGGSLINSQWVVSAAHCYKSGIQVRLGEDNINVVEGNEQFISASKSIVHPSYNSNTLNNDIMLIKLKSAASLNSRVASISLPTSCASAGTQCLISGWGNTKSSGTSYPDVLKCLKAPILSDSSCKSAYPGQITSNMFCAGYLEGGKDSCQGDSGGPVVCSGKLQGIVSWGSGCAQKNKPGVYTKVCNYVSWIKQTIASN
Protocol: Z-Gly-TRIS and Z-Ala-TRIS were incubated with papain, and Z-Leu-Arg-TRIS with trypsin, to test that the action of proteolytic enzymes could regenerate the starting compounds Z-Gly-OH, Z-Ala-OH and Z-Leu-Arg-OH respectively.
• a) Papain. Z-Ala-TRIS in 50 mmolar phosphate buffer pH 6.5 (650 ul) , 20 mM ethylene-diamine-tetraacetic acid (100 ul) and water to 1 ml. Activated papain (5mg/ml) was added to a final enzyme/substrate ratio of 1:50. The reaction was followed by HPLC on C18 reverse phase columns and the hydrolysis product identified by co-chromatography with standards. Blanks were incubated as above using water instead of enzyme solution. • b) Trypsin. Z-Leu-Arg-TRIS was incubated at a concentration between 2 and 10 mg/ml in 0.2 M ammonium hydrogen carbonate. Freshly prepared TPCK trypsin (1 mg/ml in water) was added to the solution giving a final enzyme/substrate ratio of 1:50. Samples were incubated at 37°C and aliquots examined by reverse phase HPLC. Additional amounts of enzyme were added as required.

RD10 cells = test: 3H-thymidine incorporation (mitogenic effect) in RD10 cells; assay type: cell-based; conditions: RD10 B-cell lymphoma
Protocol: (§1) ^3H-thymidine incorporation experiments were carried out in Linbro-Titertek microtitre plates (Flow Laboratories, Inc., U.S.A.) following the method of L. Bradley in "Selected Methods of Cellular Immunology (1980) Eds. B.B. Mishell and S.M. Shiigi; Publisher. W.H. Freeman and Co., U.S.A. pp156. The tests were carried out externally by Dr. D. Rathjen of Peptide Technology Ltd. Dee Why, N.S.W.
(§2) Cell lines tested were:- • 1. RD10; a B-cell lymphoma (obtained from the Centre for Immunology, Sydney University, Sydney, NSW. • 2. U937; a human monocyte-like3 histiocytic lymphoma (source: American Tissue Culture Collection).
(§3) RD10 cells (at a cell density 5x10^s/ml, 100 ul/well) were cultured for 20 hours at 37°C with 5% C02 in RPMI 1640 medium, supplemented with 10% Fetal Calf. Serum. Samples to be tested were mixed and sonicated with this medium at a concentration of 5000, 500, 50 and 5 ug/ml and 100 ul aliquots added to the cells. The cells were pulsed with 0.5 uCi/well of ^3H-thymidine and the plates incubated for four more hours before harvesting (Titertek Skatron harvester, Lier, Norway). Incorporated radioactivity was measured by liquid scintillation counting. All assays were performed in triplicate.

U937 cells = test: 3H-thymidine incorporation (mitogenic effect) in U937 cells; assay type: cell-based, human; conditions: for Thymidine incorporation of the U937 cells: U937 human monocyte-like histiocytic lymphoma, result in words, relative to control or to Z-Ala-TRIS-Tripalmitate
Protocol: as §1, §2, §3

Row | hydrolysis with trypsin (trypsin) | SMILES | ^3H-thymidine uptake by RD10 cells, response compared with Z-Ala-TRIS-Tripalmitate (RD10 cells; result in words) | Thymidine incorporation of the U937 cells (U937 cells) | ^3H-thymidine uptake by RD10 cells, increase in cell proliferation compared to control (RD10 cells; samples at 5000, 500, 50 and 5 ug/ml, 20 hours culture, 4 hours pulse, triplicate) [fold] | cytotoxic effects in U937 cells (U937 cells; at higher concentrations, from thymidine incorporation)
1 | slowly | CC(C)C[C@H](NC(=O)OCc1ccccc1)C(=O)N[C@@H](CCCNC(=N)N)C(=O)NC(CO)(CO)CO [Z-Leu-Arg-TRIS] |  |  |  | 
2 |  | CCCCCCCCCCCCCCCC(=O)OCC(COC(=O)CCCCCCCCCCCCCCC)(COC(=O)CCCCCCCCCCCCCCC)NC(=O)C(C)N (stereo not drawn) [Ala-TRIS-Tripalmitate, Ala-TRIS-TRIPALMITATE] | slightly diminished response | slightly diminished responses |  | 
3 |  | CCCCCCCCCCCCCCCC(=O)OCC(COC(=O)CCCCCCCCCCCCCCC)(COC(=O)CCCCCCCCCCCCCCC)NC(=O)C(C)NC(=O)OCc1ccccc1 (stereo not drawn) [Z-Ala-TRIS-Tripalmitate, Z-Ala-TRIS-TRIPALMITATE] |  | close to control | 3.4 | slight cytotoxic effects

From patent EP0506748B1, “AMINO ACIDS, PEPTIDES OR DERIVATIVES THEREOF COUPLED TO FATS” (COMMONWEALTH SCIENTIFIC AND INDUSTRIAL RESEARCH ORGANISATION, priority 1989, dated 1991)
